Our source for the Activity and EC50 values is ChEMBL document CHEMBL5390283, “Discovery of PVD-06 as a Subtype-Selective and Efficient PTPN2 Degrader” (J Med Chem, 2023).

Test [1] addresses T1, von Hippel-Lindau disease tumor suppressor/Tyrosine-protein phosphatase non-receptor type 2 (Homo sapiens, UniProt P17706+P40337). Put plainly: PROTAC activity at VHL/PTPN2 in human Jurkat cells assessed as induction of PTPN2 degradation at 100 nM by Western blot analysis relative to control. The class given is cell-based.
Target sequence in this assay (P17706 whole entry, looked up): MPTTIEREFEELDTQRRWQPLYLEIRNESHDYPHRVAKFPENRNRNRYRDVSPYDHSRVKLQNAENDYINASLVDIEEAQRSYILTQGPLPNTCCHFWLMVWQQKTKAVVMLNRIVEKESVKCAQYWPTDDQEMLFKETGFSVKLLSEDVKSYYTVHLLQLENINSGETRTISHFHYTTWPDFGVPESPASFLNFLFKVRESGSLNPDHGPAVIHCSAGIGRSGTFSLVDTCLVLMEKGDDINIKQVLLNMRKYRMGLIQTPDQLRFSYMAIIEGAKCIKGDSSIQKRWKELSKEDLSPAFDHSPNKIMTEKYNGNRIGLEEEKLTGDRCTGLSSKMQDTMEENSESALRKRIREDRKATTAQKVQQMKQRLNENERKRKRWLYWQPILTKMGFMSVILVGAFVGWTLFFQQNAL
Target sequence in this assay (P40337 whole entry, looked up): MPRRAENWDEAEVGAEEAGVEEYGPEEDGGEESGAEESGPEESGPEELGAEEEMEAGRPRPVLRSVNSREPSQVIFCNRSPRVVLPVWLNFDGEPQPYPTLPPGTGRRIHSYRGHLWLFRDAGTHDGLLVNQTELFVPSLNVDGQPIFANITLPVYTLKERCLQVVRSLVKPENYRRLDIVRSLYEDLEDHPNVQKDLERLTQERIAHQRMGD
The target in test [2] is T1, von Hippel-Lindau disease tumor suppressor/Tyrosine-protein phosphatase non-receptor type 2. The experiment in a line: PROTAC activity at VHL/PTPN2 in human Jurkat cells assessed as induction of PTPN2 degradation at 1 uM by Western blot analysis relative to control. It counts as cell-based.
Target sequence in this assay (P17706 whole entry, looked up): as the sequence (P17706 whole entry, looked up) above
Target sequence in this assay (P40337 whole entry, looked up): as the sequence (P40337 whole entry, looked up) above
Test [3] has the same target. Put plainly: PROTAC activity at VHL/PTPN2 in human Jurkat cells assessed as induction of PTPN2 degradation at 10 uM by Western blot analysis relative to control. It counts as cell-based.
Target sequence in this assay (P17706 whole entry, looked up): as the sequence (P17706 whole entry, looked up) above
Target sequence in this assay (P40337 whole entry, looked up): as the sequence (P40337 whole entry, looked up) above
For test [4], the target named is von Hippel-Lindau disease tumor suppressor/Tyrosine-protein phosphatase non-receptor type 1 (Homo sapiens, UniProt P18031+P40337). Put plainly: PROTAC activity at VHL/PTP1B in human Jurkat cells assessed as induction of PTP1B degradation by Western blot analysis. The class given is cell-based.
Chain of von Hippel-Lindau disease tumor suppressor/Tyrosine-protein phosphatase non-receptor type 1 (P18031 whole entry): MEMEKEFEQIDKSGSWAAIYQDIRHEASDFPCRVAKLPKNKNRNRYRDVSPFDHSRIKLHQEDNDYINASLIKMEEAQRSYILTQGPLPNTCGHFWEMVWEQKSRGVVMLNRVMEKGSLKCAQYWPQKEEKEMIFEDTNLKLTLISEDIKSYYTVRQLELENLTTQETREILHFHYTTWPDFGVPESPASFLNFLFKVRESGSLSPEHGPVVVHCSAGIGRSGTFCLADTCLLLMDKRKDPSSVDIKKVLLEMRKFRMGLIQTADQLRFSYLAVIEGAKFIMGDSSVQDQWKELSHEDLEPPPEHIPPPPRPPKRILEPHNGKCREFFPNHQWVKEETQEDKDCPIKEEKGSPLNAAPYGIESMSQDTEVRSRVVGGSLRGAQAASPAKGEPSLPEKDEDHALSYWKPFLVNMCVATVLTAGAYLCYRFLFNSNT
Chain of von Hippel-Lindau disease tumor suppressor/Tyrosine-protein phosphatase non-receptor type 1 (P40337 whole entry): as the sequence (P40337 whole entry, looked up) above
Test [5] deals with T1, von Hippel-Lindau disease tumor suppressor/Tyrosine-protein phosphatase non-receptor type 2. The experiment in a line: PROTAC activity at VHL/PTPN2 in human Jurkat cells assessed as induction of PTPN2 degradation by Western blot analysis. It counts as cell-based.
Target sequence in this assay (P17706 whole entry): as the sequence (P17706 whole entry, looked up) above
Target sequence in this assay (P40337 whole entry): as the sequence (P40337 whole entry, looked up) above
Test [6] addresses Protein cereblon/Tyrosine-protein phosphatase non-receptor type 2 (Homo sapiens) (UniProt P17706+Q96SW2). The experiment in a line: PROTAC activity at CRBN/PTPN2 in human Jurkat cells assessed as induction of PTPN2 degradation at 0.01 to 10 uM by Western blot analysis. Conditions: dose 0.01-10 µM. It counts as cell-based.
Test [7] deals with T1, von Hippel-Lindau disease tumor suppressor/Tyrosine-protein phosphatase non-receptor type 2. Put plainly: PROTAC activity at VHL/PTPN2 in human Jurkat cells assessed as residual activity of PTPN2 level at 1 uM by Western blot analysis relative to control. It counts as cell-based.
Target sequence in this assay (P17706 whole entry, looked up): as the sequence (P17706 whole entry, looked up) above
Target sequence in this assay (P40337 whole entry, looked up): as the sequence (P40337 whole entry, looked up) above
The test system of test [8] is Splenocyte. Put plainly: Induction of cell proliferation in anti-CD3/CD28-stimulated mouse splenocytes at 0.625 to 10 uM incubated for 3 days by CFSE dye based flow cytometry. It counts as functional. The settings on record: dose 0.625-10 µM, time 3.0 day.

Activity calls are given as the source filed them. The rule behind the calls is not given here.

Chain of Protein cereblon/Tyrosine-protein phosphatase non-receptor type 2 (Homo sapiens) (P17706 whole entry, looked up): as the sequence (P17706 whole entry, looked up) above
Chain of Protein cereblon/Tyrosine-protein phosphatase non-receptor type 2 (Homo sapiens) (Q96SW2 whole entry, looked up): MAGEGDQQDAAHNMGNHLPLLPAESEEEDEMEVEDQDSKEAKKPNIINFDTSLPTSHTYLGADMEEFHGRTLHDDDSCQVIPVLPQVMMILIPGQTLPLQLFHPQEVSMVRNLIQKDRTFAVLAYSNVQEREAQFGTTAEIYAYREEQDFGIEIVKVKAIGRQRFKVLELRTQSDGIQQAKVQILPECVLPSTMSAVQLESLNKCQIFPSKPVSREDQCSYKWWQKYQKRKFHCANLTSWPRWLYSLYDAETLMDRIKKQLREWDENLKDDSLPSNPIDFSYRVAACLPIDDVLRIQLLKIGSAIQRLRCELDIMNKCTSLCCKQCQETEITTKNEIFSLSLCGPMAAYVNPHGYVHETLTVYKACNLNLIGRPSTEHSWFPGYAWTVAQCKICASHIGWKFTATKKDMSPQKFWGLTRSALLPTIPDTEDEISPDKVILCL

`Cc1ncsc1-c1ccc([C@H](C)NC(=O)[C@@H]2C[C@@H](O)CN2C(=O)[C@@H](NC(=O)CCNC(=O)Cn2cc(-c3ccc4cc(O)c(N5CC(=O)NS5(=O)=O)c(F)c4c3)cn2)C(C)(C)C)cc1`: the Activity in test [1] is -1%; in test [2], 57%; in test [3], 96%.

As for `Cc1ncsc1-c1ccc([C@H](C)NC(=O)[C@@H]2C[C@@H](O)CN2C(=O)[C@@H](NC(=O)CCCCCCCNC(=O)Cn2cc(-c3ccc4cc(O)c(N5CC(=O)NS5(=O)=O)c(F)c4c3)cn2)C(C)(C)C)cc1`, the Activity in test [1] turned out to be 37%; in test [2], 84%; in test [3] it was 99%. Also, the EC50 in test [4] worked out at 0.758 µM; in test [5], 0.077 µM.

On to `Cn1c(=O)n(C2CCC(=O)NC2=O)c2ccc(C3CCN(C(=O)Cn4cc(-c5ccc6cc(O)c(N7CC(=O)NS7(=O)=O)c(F)c6c5)cn4)CC3)cc21` (centres undefined), for which, in test [6], the result was Active.

With `Cc1ncsc1-c1ccc([C@H](C)NC(=O)[C@@H]2C[C@@H](O)CN2C(=O)[C@@H](NC(=O)CCCCCCCCNC(=O)Cn2cc(-c3ccc4cc(O)c(N5CC(=O)NS5(=O)=O)c(F)c4c3)cn2)C(C)(C)C)cc1`, the results for the Activity in test [1], in test [2] and in test [3] were 27%, 60% and 94%, respectively.

`Cc1ncsc1-c1ccc([C@H](C)NC(=O)[C@@H]2C[C@@H](O)CN2C(=O)[C@@H](NC(=O)CCCCCCCCCCNC(=O)Cn2cc(-c3ccc4cc(O)c(N5CC(=O)NS5(=O)=O)c(F)c4c3)cn2)C(C)(C)C)cc1`: the Activity in test [1] was determined as 4%; in test [2] it was 71%; in test [3], 98%. Also, the EC50 worked out at 2 µM in test [4] and 0.571 µM in test [5].

Turning to `O=C(Cn1cc(-c2ccc3cc(O)c(N4CC(=O)NS4(=O)=O)c(F)c3c2)cn1)NCCCNc1cccc2c1C(=O)N(C1CCC(=O)NC1=O)C2=O` (centres undefined), the result in test [6] was Active.

Regarding `Cc1ncsc1-c1ccc([C@H](C)NC(=O)[C@@H]2C[C@@H](O)CN2C(=O)[C@@H](NC(=O)CCCCNC(=O)Cn2cc(-c3ccc4cc(O)c(N5CC(=O)NS5(=O)=O)c(F)c4c3)cn2)C(C)(C)C)cc1`, the Activity was determined as 29% in test [1], 77% in test [2] and 92% in test [3].

`O=C(Cn1cc(-c2ccc3cc(O)c(N4CC(=O)NS4(=O)=O)c(F)c3c2)cn1)NCCCCCNc1cccc2c1C(=O)N(C1CCC(=O)NC1=O)C2=O` (centres undefined): in test [6], the outcome was Active.

For the molecule `Cn1c(=O)n(C2CCC(=O)NC2=O)c2ccc(C3CCN(CCn4cc(-c5ccc6cc(O)c(N7CC(=O)NS7(=O)=O)c(F)c6c5)cn4)CC3)cc21` (centres undefined), the result in test [6] was Active.

For `Cc1ncsc1-c1ccc([C@H](C)NC(=O)[C@@H]2C[C@@H](O)CN2C(=O)[C@@H](NC(=O)CNC(=O)Cn2cc(-c3ccc4cc(O)c(N5CC(=O)NS5(=O)=O)c(F)c4c3)cn2)C(C)(C)C)cc1`, the figures for the Activity in test [1], in test [2] and in test [3] were -18%, 33% and 91%, respectively.

`Cc1ncsc1-c1ccc([C@H](C)NC(=O)[C@@H]2C[C@@H](O)CN2C(=O)[C@@H](NC(=O)CCCCCCNC(=O)Cn2cc(-c3ccc4cc(O)c(N5CC(=O)NS5(=O)=O)c(F)c4c3)cn2)C(C)(C)C)cc1`: the Activity in test [1] turned out to be 40%; in test [2], 84%; in test [3] it was 99%. For the same molecule, the values for the EC50 in test [4] and in test [5] were 0.142 µM and 0.094 µM, respectively.

For the molecule `Cc1ncsc1-c1ccc([C@H](C)NC(=O)[C@@H]2C[C@@H](O)CN2C(=O)[C@@H](NC(=O)c2cn(CCCNC(=O)Cn3cc(-c4ccc5cc(O)c(N6CC(=O)NS6(=O)=O)c(F)c5c4)cn3)nn2)C(C)(C)C)cc1`, the Activity is -2% in test [1], 2% in test [2] and 62% in test [3].

`Cc1ncsc1-c1ccc([C@H](C)NC(=O)[C@@H]2C[C@@H](O)CN2C(=O)[C@@H](NC(=O)CNC2CCN(C(=O)Cn3cc(-c4ccc5cc(O)c(N6CC(=O)NS6(=O)=O)c(F)c5c4)cn3)CC2)C(C)(C)C)cc1`: the Activity is -17% in test [1], 20% in test [7], 72% in test [2] and 99% in test [3].

On to `Cc1ncsc1-c1ccc([C@H](C)NC(=O)[C@@H]2C[C@@H](Oc3ccccc3)CN2C(=O)[C@@H](NC(=O)CCCCCNC(=O)Cn2cc(-c3ccc4cc(O)c(N5CC(=O)NS5(=O)=O)c(F)c4c3)cn2)C(C)(C)C)cc1`, for which the outcome in test [8] was inactive.

Consider `Cc1ncsc1-c1ccc([C@H](C)NC(=O)[C@@H]2C[C@@H](O)CN2C(=O)[C@@H](NC(=O)CCCNC(=O)Cn2cc(-c3ccc4cc(O)c(N5CC(=O)NS5(=O)=O)c(F)c4c3)cn2)C(C)(C)C)cc1`, for which the values for the Activity in test [1], in test [2] and in test [3] were 26%, 81% and 98%, respectively.

On to `O=C(Cn1cc(-c2ccc3cc(O)c(N4CC(=O)NS4(=O)=O)c(F)c3c2)cn1)NCCCCNc1cccc2c1C(=O)N(C1CCC(=O)NC1=O)C2=O` (centres undefined), for which the result in test [6] was Active.

Turning to `Cc1ncsc1-c1ccc([C@H](C)NC(=O)[C@@H]2C[C@@H](O)CN2C(=O)[C@@H](NC(=O)Cn2cc(-c3ccc4cc(O)c(N5CC(=O)NS5(=O)=O)c(F)c4c3)cn2)C(C)(C)C)cc1`, the Activity in test [1] was -3%; in test [2], -8%; in test [3], -53%.

Turning to `Cc1ncsc1-c1ccc([C@H](C)NC(=O)[C@@H]2C[C@@H](O)CN2C(=O)[C@@H](NC(=O)CCNC2CCN(C(=O)Cn3cc(-c4ccc5cc(O)c(N6CC(=O)NS6(=O)=O)c(F)c5c4)cn3)CC2)C(C)(C)C)cc1`, the Activity in test [1] amounted to 15%; in test [2], 35%; in test [3], 85%.
